Marks after values point to notes of the source that are not given here.
Experiments:
[1] = Body weight and general state of castrated male rabbits during and after topical eye administration; details: x ± s, n=5
Protocol: (§1) 5, 2014-Oct. […] Body weight was measured on the first day and the last day of the quarantine period. • 7 Grouping and Identifying Method for Experimental Animals • 7.1 Identifying method for animals • 7.1.1 Quarantine period: fed in separate cages, tag hung on each cage, and no marking of animals. • 7.1.2 Administration observation period: marked by staining with saturated picric acid solution, and 5 rabbits in each group were marked in the following ways, respectively: head, back, tail, head and back, and white. • 7.2 Grouping of experimental animals: after the quarantine period was finished, 5 rabbits were randomly selected according to the body weight and used in the normal control group, and the rest rabbits were used in the modeling group. […] 5, 2014-Aug. 11, 2014 • 9.3 Date of grouping: Aug. 12, 2014, Sep. 15, 2014 • 9.4 Date of modeling: Aug. 12, 2014 • 9.5 Administration time: Sep. 15, 2014 • 9.6 Animal sacrifice time: Oct. 27, 2014 • 9.2 Duration of administration: two consecutive weeks from Sep. 15, 2014 to Sep. […] An aseptic towel was spread out, testicles at two sides were sequentially squeezed into the scrotum from abdominal cavity and clenched to prevent them from sliding, a small opening was cut on the scrotum with a sterilized blade, the testicles were squeezed out by force, the spermatic vein and vas deferens were ligated, the testicles and epididymis were cut out, the scrotum skin was sutured, and iodine tincture was coated locally to prevent infection. • 11.2 Administration method: administration was started on day 35 after the operation, at a prescribed dose for 14 consecutive days. • 11.3 Detection indexes: for each group, basal tear secretion (Schirmer I test), corneal fluorescence staining (PI) and tear film break-up time (BUT) were detected before the modeling and on days 0, 7, and 14 after the administration by performing surface anesthesia. • 11.3.1 Basal tear secretion (Schirmer I test): the 5 mm forepart of a qualitative filter paper (35 mm×6 mm) was reversely folded and placed in the lower eyelid bitamporal conjunctival sac, and the tear infiltration length (including the reversely-folded segment) of the test paper after 5 min was detected and recorded. • 11.3.2 Scoring criteria for corneal fluorescence staining (PI): 1% fluorescein sodium was applied to both eyes of a rabbit without subsequent rinsing, and a slit-lamp microscope was used for observation.

[2] = tested on: dry eye syndrome caused by castration of male rabbits; assay: Corneal fluorescence staining (PI) score in castrated male rabbits; format: in vivo, Japanese big-ear white rabbit; details: score 0-4, x ± s, n=5
Protocol: (§2) 5, 2014-Oct. […] Body weight was measured on the first day and the last day of the quarantine period. • 7 Grouping and Identifying Method for Experimental Animals • 7.1 Identifying method for animals • 7.1.1 Quarantine period: fed in separate cages, tag hung on each cage, and no marking of animals. • 7.1.2 Administration observation period: marked by staining with saturated picric acid solution, and 5 rabbits in each group were marked in the following ways, respectively: head, back, tail, head and back, and white. • 7.2 Grouping of experimental animals: after the quarantine period was finished, 5 rabbits were randomly selected according to the body weight and used in the normal control group, and the rest rabbits were used in the modeling group. […] 5, 2014-Aug. 11, 2014 • 9.3 Date of grouping: Aug. 12, 2014, Sep. 15, 2014 • 9.4 Date of modeling: Aug. 12, 2014 • 9.5 Administration time: Sep. 15, 2014 • 9.6 Animal sacrifice time: Oct. 27, 2014 • 9.2 Duration of administration: two consecutive weeks from Sep. 15, 2014 to Sep. […]

[3] = tested on: dry eye syndrome caused by castration of male rabbits; assay: Basal tear secretion (Schirmer I test) in castrated male rabbits; format: in vivo, Japanese big-ear white rabbit
Protocol: as §1

[4] = tested on: dry eye syndrome caused by castration of male rabbits; assay: Histopathology examination of harderian gland and meibomian gland in castrated male rabbits; format: in vivo, Japanese big-ear white rabbit; details: HE sections, in words
Protocol: as §2

[5] = topical to the eyes for 14 days
[6] = castrated male rabbits, topical to the eyes, Schirmer I 5 min, x ± s, n=5

CCC(=O)O[C@H]1CC[C@H]2[C@@H]3CCC4=CC(=O)CC[C@]4(C)[C@H]3CC[C@]12C [Positive 2, testosterone propionate]
Weight of rabbits, Day 7 after drug withdrawal [1, 5]: 3.0 ± 1.21 kg | Weight of rabbits, Day 14 after drug withdrawal [1, 5]: 3.3 ± 1.31 kg | Weight of rabbits, Day 21 after drug withdrawal [1, 5]: 3.6 ± 1.07 kg | Weight of rabbits, Day 28 after drug withdrawal [1, 5]: 4.0 ± 1.20 kg | Weight of rabbits, Day 7 of administration ([1]; topical to the eyes): 2.4 ± 1.10 kg | Weight of rabbits, Day 14 of administration ([1]; topical to the eyes): 2.6 ± 1.05 kg | Corneal staining score, Day 28 after drug withdrawal [2, 5]: 3.0 ± 1.22 | Corneal staining score, Day 7 of administration ([2]; topical to the eyes): 2.8 ± 0.22 | Corneal staining score, Day 14 of administration ([2]; topical to the eyes): 2.2 ± 0.57*^Δ▴ | Tear secretion, Day 28 after drug withdrawal ([3]; castrated male rabbits, topical to the eyes for 14 days, Schirmer I 5 min, x ± s, n=5): 12.2 ± 3.48 mm | Tear secretion, Day 7 of administration [3, 6]: 12.7 ± 2.84 mm | Tear secretion, Day 14 of administration [3, 6]: 14.8 ± 3.17*^Δ▴ mm | Tear secretion, effect in words ([3]; castrated rabbits, compared with the model group and the solvent group (P<0.05)): increased markedly | Histopathology of harderian gland and meibomian gland compared with the model group [4]: marked ameliorating
